≈ marks a conversion by molar mass, not a printed value. Calls of active or inactive are those of the source. The calls are words filed in the database; no cut-off is given here.
How the values were obtained:
[1] = tested on: HCT-116; experiment: Antiproliferative activity against human […] cells assessed as inhibition of cell growth incubated for 72 hrs by MTT assay; assay type: functional, cell-based; settings: HCT-116, 72 h
[2] = tested on: RKO; experiment: Antiproliferative activity against human RKO cells assessed as inhibition of cell growth incubated for 72 hrs by MTT assay; assay type: functional, cell-based
[3] = tested on: MCF7; experiment: Antiproliferative activity against human MCF7 cells assessed as inhibition of cell growth incubated for 72 hrs by MTT assay; assay type: functional, cell-based; settings: MCF7, 72 h
[4] = Aqueous solubility of compound by HPLC analysis; assay type: physicochemical
[5] = Stability of compound at pH 4.6 assessed as residual rate measured after 2 days; assay type: physicochemical; settings: buffer, time 2 day, read-out: Stability
[6] = Stability of compound at pH 7.4 assessed as residual rate measured after 2 days; assay type: physicochemical; settings: buffer, time 2 day, read-out: Stability
[7] = Half-life in male Sprague-Dawley rat at 50 mg/kg, ip measured after 24 hrs by LC-MS/MS analysis; assay type: ADME, organism-based; settings: in vivo
[8] = AUC (0 to t) in male Sprague-Dawley rat at 50 mg/kg, ip measured after 24 hrs by LC-MS/MS analysis; assay type: ADME, organism-based; settings: in vivo
[9] = Potency index, ratio of topotecan IC50 to test compound IC50 for antiproliferative activity against human RKO cells assessed as inhibition of cell growth incubated for 72 hrs by MTT assay; assay type: functional
[10] = target: T1, DNA topoisomerase 1 (Homo sapiens) (UniProt P11387); experiment: Inhibition of topoisomerase 1 (unknown origin) mediated DNA relaxation at 100 uM preincubated for 20 mins followed by pBR322 plasmid DNA addition and measured after 15 mins by red nucleic acid gel staining based agarose gel electrophoresis; settings: time 35.0 min
T1 sequence (whole entry): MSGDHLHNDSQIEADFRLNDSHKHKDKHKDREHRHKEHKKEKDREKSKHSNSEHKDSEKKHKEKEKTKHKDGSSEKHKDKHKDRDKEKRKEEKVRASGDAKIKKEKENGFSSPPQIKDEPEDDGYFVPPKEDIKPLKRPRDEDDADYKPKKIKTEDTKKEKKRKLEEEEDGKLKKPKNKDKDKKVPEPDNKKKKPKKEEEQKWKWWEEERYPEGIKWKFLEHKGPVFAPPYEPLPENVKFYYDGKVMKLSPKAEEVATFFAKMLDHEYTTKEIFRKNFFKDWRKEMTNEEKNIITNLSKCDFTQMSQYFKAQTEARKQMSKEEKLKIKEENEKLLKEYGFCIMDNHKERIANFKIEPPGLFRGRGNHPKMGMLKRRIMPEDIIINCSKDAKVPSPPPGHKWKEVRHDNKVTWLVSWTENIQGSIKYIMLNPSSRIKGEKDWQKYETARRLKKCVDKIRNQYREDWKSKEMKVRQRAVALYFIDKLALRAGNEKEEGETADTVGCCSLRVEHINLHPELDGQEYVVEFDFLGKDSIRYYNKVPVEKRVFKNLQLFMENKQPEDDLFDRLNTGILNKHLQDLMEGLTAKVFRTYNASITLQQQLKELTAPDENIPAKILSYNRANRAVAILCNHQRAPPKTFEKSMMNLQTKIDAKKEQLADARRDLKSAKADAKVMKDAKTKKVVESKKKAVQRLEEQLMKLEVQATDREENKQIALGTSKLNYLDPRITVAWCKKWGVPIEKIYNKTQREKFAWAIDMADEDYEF

[11] = tested on: LoVo; experiment: Cell cycle arrest in human LoVo cells assessed as accumulation of cells at S phase cells at 90 nM incubated for 24 hrs by […]PI staining based flow cytometric analysis (reference value: 54.99 %); assay type: functional
[12] = tested on: LoVo; experiment: Cell cycle arrest in human LoVo cells assessed as accumulation of cells at G2 phase cells at 10 nM incubated for 24 hrs by […]PI staining based flow cytometric analysis (reference value: 14.84 %); assay type: functional
[13] = tested on: LoVo; experiment: Cell cycle arrest in human LoVo cells assessed as accumulation of cells at S phase cells at 10 nM incubated for 24 hrs by […]PI staining based flow cytometric analysis (reference value: 54.99 %); assay type: functional
[14] = tested on: LoVo; experiment: Cell cycle arrest in human LoVo cells assessed as accumulation of cells at G1 phase cells at 30 nM incubated for 24 hrs by […]PI staining based flow cytometric analysis (reference value: 29.69 %); assay type: functional
[15] = tested on: RKO; experiment: Cell cycle arrest in human RKO cells assessed as accumulation of cells at S phase at 90 nM incubated for 24 hrs by […]PI staining based flow cytometric analysis (reference value: 43.36 %); assay type: functional
[16] = tested on: RKO; experiment: Cell cycle arrest in human RKO cells assessed as accumulation of cells at G1 phase at 10 nM incubated for 24 hrs by […]PI staining based flow cytometric analysis (reference value: 35.29 %); assay type: functional
[17] = tested on: RKO; experiment: Cell cycle arrest in human RKO cells assessed as accumulation of cells at G1 phase at 30 nM incubated for 24 hrs by […]PI staining based flow cytometric analysis (reference value: 35.29 %); assay type: functional
[18] = tested on: RKO; experiment: Cell cycle arrest in human RKO cells assessed as accumulation of cells at S phase at 30 nM incubated for 24 hrs by […]PI staining based flow cytometric analysis (reference value: 43.36 %); assay type: functional
[19] = tested on: RKO; experiment: Induction of morphological changes in human RKO cells assessed as appearance of contracted nucleus incubated for 24 hrs by Giemsa staining based microscopic analysis; assay type: functional, cell-based; settings: dose 10-90 nM
[20] = tested on: LoVo; experiment: Induction of apoptosis in human LoVo cells assessed as apoptosis rate at 90 nM incubated for 24 hrs by Annexin V/PI staining based flow cytometric analysis (reference value: 4.71 %); assay type: functional
[21] = tested on: RKO; experiment: Induction of apoptosis in human RKO cells assessed as apoptosis rate at 90 nM incubated for 24 hrs by Annexin V/PI staining based flow cytometric analysis (reference value: 4.87 %); assay type: functional
[22] = tested on: Mitochondrial membrane; experiment: Induction of mitochondrial membrane potential loss in human RKO cells assessed as decrease in TMRE positive cells at 10 to 90 nM incubated for 24 hrs by TMRE staining based flow cytometric analysis; assay type: cell membranes; settings: dose 10-90 nM
[23] = Toxicity in male BALB/c nude mouse xenografted with human LoVo cells assessed as tolerance at 40 mg/kg, ip administered once daily for 14 days; assay type: organism-based; settings: in vivo, 336 h, time 14 day
[24] = Toxicity in male BALB/c nude mouse xenografted with human HT-29 cells assessed as tolerance at 40 mg/kg, ip administered once daily for 14 days; assay type: organism-based; settings: in vivo, 336 h, time 14 day

CC(C)(C)OC(=O)N[C@@H](CCC(N)=O)C(=O)Oc1ccc2[nH]c3c(c2c1)CCN1C(=O)c2cc(F)ccc2N(c2cccc(F)c2)[C@H]31
IC50 [1]: 260 nM | IC50 [2]: 50 nM | IC50 [3]: 600 nM | solubility [4]: 11.4 µg/mL (≈ 17.7 µM) | remaining at 48 h [5]: 67.8% | remaining at 48 h [6]: 40.2% | half-life [7]: 1.38 h | AUC(0-t) at 24 h [8]: 14600 ng·h/mL | Ratio IC50 [9]: 3.4 | inhibition [10]: Active | Activity [11]: 53.62% | Activity [12]: 27.11% | Activity [13]: 45.15% | Activity [14]: 10.27% | Activity [15]: 49.95% | Activity [16]: 29.55% | Activity [17]: 16.95% | Activity [18]: 25.51% | Activity [19]: Dose-dependent-effect | Activity [20]: 36.4% | Activity [21]: 12.25% | Activity [22]: Active | Activity [23]: Non-toxic | Activity [24]: Non-toxic
